Like-named read-outs stand apart in the source and are kept apart here.
Assay: Pharmacokinetics in dogs (plasma concentration by HPLC)
Format: in vivo, dog (beagle)
Settings: dog, plasma, po, 2 mg/kg/day; for concentration at 0.5 h / concentration at 1 h / concentration at 2 h / concentration at 4 h / AUC(0-t) / Cmax / Tmax / half-life / AUC(0-inf): 2 mg/kg/day PO; for AUC(0-inf): read-out: AUCO- (to infinite time)
Experimental: Since dogs are used in toxicology studies of antiasthma compounds, this species is chosen for pharmacokinetic evaluations. Use of the dog permits the pharmacokinetic comparison of 2 or more compounds in the same test animal, an evaluation which could not be conveniently performed in a smaller species. For each test compound, normal dogs are given a dose of 2.0 mg/kg/day for 5 consecutive days. There is a washout period of 1 month between the study of each of the test compounds in the same four dogs. Each test compound is administered as a solution of 5 mg/ml in either 0.05 or 0.1N HCl which is dispensed into a gelatin capsule immediately prior to dosage.
Heparinized blood samples are obtained from each animal on the first, third and fifth day of dosage at 0.5, 1.0, 2.0, 4.0, 7.0, 12.0 and 24.0 hours after the dose. The samples are centrifuged immediately to obtain plasma which is frozen until analyzed.
Analysis of plasma is performed using High Performance Liquid Chromatography (HPLC). The analytical procedure is essentially identical for each compound. The internal standard used for N-[3-[2-(1H-imidazol-1-yl)ethoxy]phenyl]-4-(2-thienyl)2-pyrimidinamine is 2-chloro-11-(4-methyl-1-piperazinyl)dibenz[b,f][1,4]oxazepine succinate, while for 2-methyl-N^4 -[4-(4-pyridinyl)-2-pyrimidinyl]-1,4-benzenediamine dihydrochloride and N-[4-[2-(diethylamino)ethoxy]phenyl]-4-(4-pyridinyl)-2-pyrimidnamine dihydrochloride the internal standard is 7-ethoxy-coumarin. In a typical procedure, a 0.4 ml volume of acetonitrile containing internal standard is added a 0.2 ml volume of serum. The sample is mixed by vortexing and centrifuged. The clear protein free supernatent fluid is decanted into a clean tube and evaporated to dryness. The dry residue is dissolved in 0.2 ml of HPLC mobile phase and 50 ul of this solution injected. Peaks corresponding to the test compound being measured and to the internal standard compound are quantitated by their absorption of ultraviolet light at 280 nm. Each set of analytical samples is accompanied by the analysis of a group of standard dog plasma samples prepared to contain amounts of the compound being measured which encompasses the concentration range of the samples.
Four normal beagle dogs weighing between 9.2 and 10.2 Kg are used in the study.

SMILES: Cc1cc(Nc2nccc(-c3ccncc3)n2)ccc1N.Cl.Cl [Compound 2, 2-methyl-N^4-[4-(4-pyridinyl)-2-pyrimidinyl]-1,4-benzenediamine dihydrochloride, reference compound]
- concentration at 0.5 h (Dog 1, day 1, 0.5 h): 512 ng/mL
- concentration at 1 h (Dog 1, day 1, 1 h): 233 ng/mL
- concentration at 2 h (Dog 1, day 1, 2 h): 55 ng/mL
- concentration at 4 h (Dog 1, day 1, 4 h): < 30 ng/mL
- AUC(0-t) (Dog 1, day 1): 458 ng·h/mL
- Cmax (Dog 1, day 1): 512 ng/mL
- Tmax (Dog 1, day 1): 30 min
- half-life (Dog 1, day 1): 28.2 min
- AUC(0-inf) (Dog 1, day 1): 520 ng·h/mL
- concentration at 0.5 h (Dog 1, day 3, 0.5 h): 375 ng/mL
- concentration at 1 h (Dog 1, day 3, 1 h): 295 ng/mL
- concentration at 2 h (Dog 1, day 3, 2 h): 122 ng/mL
- concentration at 4 h (Dog 1, day 3, 4 h): < 30 ng/mL
- AUC(0-t) (Dog 1, day 3): 470 ng·h/mL
- Cmax (Dog 1, day 3): 375 ng/mL
- Tmax (Dog 1, day 3): 30 min
- half-life (Dog 1, day 3): 54 min
- AUC(0-inf) (Dog 1, day 3): 602 ng·h/mL
- concentration at 0.5 h (Dog 1, day 5, 0.5 h): 120 ng/mL
- concentration at 1 h (Dog 1, day 5, 1 h): 277 ng/mL
- concentration at 2 h (Dog 1, day 5, 2 h): 50 ng/mL
- concentration at 4 h (Dog 1, day 5, 4 h): < 30 ng/mL
- AUC(0-t) (Dog 1, day 5): 293 ng·h/mL
- Cmax (Dog 1, day 5): 277 ng/mL
- Tmax (Dog 1, day 5): 60 min
- AUC(0-inf) (Dog 1, day 5): 349 ng·h/mL
- concentration at 0.5 h (Dog 2, day 1, 0.5 h): 438 ng/mL
- concentration at 1 h (Dog 2, day 1, 1 h): 210 ng/mL
- concentration at 2 h (Dog 2, day 1, 2 h): 58 ng/mL
- concentration at 4 h (Dog 2, day 1, 4 h): < 30 ng/mL
- AUC(0-t) (Dog 2, day 1): 406 ng·h/mL
- Cmax (Dog 2, day 1): 438 ng/mL
- Tmax (Dog 2, day 1): 30 min
- half-life (Dog 2, day 1): 31.2 min
- AUC(0-inf) (Dog 2, day 1): 471 ng·h/mL
- concentration at 0.5 h (Dog 2, day 3, 0.5 h): 260 ng/mL
- concentration at 1 h (Dog 2, day 3, 1 h): 78 ng/mL
- concentration at 2 h (Dog 2, day 3, 2 h): < 30 ng/mL
- concentration at 4 h (Dog 2, day 3, 4 h): < 30 ng/mL
- AUC(0-t) (Dog 2, day 3): 293 ng·h/mL
- Cmax (Dog 2, day 3): 260 ng/mL
- Tmax (Dog 2, day 3): 30 min
- AUC(0-inf) (Dog 2, day 3): 380 ng·h/mL
- concentration at 0.5 h (Dog 2, day 5, 0.5 h): 350 ng/mL
- concentration at 1 h (Dog 2, day 5, 1 h): 58 ng/mL
- concentration at 2 h (Dog 2, day 5, 2 h): < 30 ng/mL
- concentration at 4 h (Dog 2, day 5, 4 h): < 30 ng/mL
- AUC(0-t) (Dog 2, day 5): 190 ng·h/mL
- Cmax (Dog 2, day 5): 350 ng/mL
- Tmax (Dog 2, day 5): 30 min
- AUC(0-inf) (Dog 2, day 5): 255 ng·h/mL
- concentration at 0.5 h (Dog 3, day 1, 0.5 h): 605 ng/mL
- concentration at 1 h (Dog 3, day 1, 1 h): 234 ng/mL
- concentration at 2 h (Dog 3, day 1, 2 h): 184 ng/mL
- concentration at 4 h (Dog 3, day 1, 4 h): < 30 ng/mL
- AUC(0-t) (Dog 3, day 1): 570 ng·h/mL
- Cmax (Dog 3, day 1): 605 ng/mL
- Tmax (Dog 3, day 1): 30 min
- half-life (Dog 3, day 1): 58.2 min
- AUC(0-inf) (Dog 3, day 1): 776 ng·h/mL
- concentration at 0.5 h (Dog 3, day 3, 0.5 h): 387 ng/mL
- concentration at 1 h (Dog 3, day 3, 1 h): 284 ng/mL
- concentration at 2 h (Dog 3, day 3, 2 h): 141 ng/mL
- concentration at 4 h (Dog 3, day 3, 4 h): < 30 ng/mL
- AUC(0-t) (Dog 3, day 3): 477 ng·h/mL
- Cmax (Dog 3, day 3): 387 ng/mL
- Tmax (Dog 3, day 3): 30 min
- half-life (Dog 3, day 3): 61.2 min
- AUC(0-inf) (Dog 3, day 3): 635 ng·h/mL
- concentration at 0.5 h (Dog 3, day 5, 0.5 h): 105 ng/mL
- concentration at 1 h (Dog 3, day 5, 1 h): 289 ng/mL
- concentration at 2 h (Dog 3, day 5, 2 h): < 30 ng/mL
- concentration at 4 h (Dog 3, day 5, 4 h): < 30 ng/mL
- AUC(0-t) (Dog 3, day 5): 125 ng·h/mL
- Cmax (Dog 3, day 5): 289 ng/mL
- Tmax (Dog 3, day 5): 60 min
- AUC(0-inf) (Dog 3, day 5): 449 ng·h/mL
- concentration at 0.5 h (Dog 4, day 1, 0.5 h): 482 ng/mL
- concentration at 1 h (Dog 4, day 1, 1 h): 206 ng/mL
- concentration at 2 h (Dog 4, day 1, 2 h): < 30 ng/mL
- concentration at 4 h (Dog 4, day 1, 4 h): < 30 ng/mL
- AUC(0-t) (Dog 4, day 1): 399 ng·h/mL
- Cmax (Dog 4, day 1): 482 ng/mL
- Tmax (Dog 4, day 1): 30 min
- AUC(0-inf) (Dog 4, day 1): 630 ng·h/mL
- concentration at 0.5 h (Dog 4, day 3, 0.5 h): 283 ng/mL
- concentration at 1 h (Dog 4, day 3, 1 h): 44 ng/mL
- concentration at 2 h (Dog 4, day 3, 2 h): < 30 ng/mL
- concentration at 4 h (Dog 4, day 3, 4 h): < 30 ng/mL
- AUC(0-t) (Dog 4, day 3): 175 ng·h/mL
- Cmax (Dog 4, day 3): 283 ng/mL
- Tmax (Dog 4, day 3): 30 min
- AUC(0-inf) (Dog 4, day 3): 224 ng·h/mL
- concentration at 0.5 h (Dog 4, day 5, 0.5 h): 420 ng/mL
- concentration at 1 h (Dog 4, day 5, 1 h): < 30 ng/mL
- concentration at 2 h (Dog 4, day 5, 2 h): < 30 ng/mL
- concentration at 4 h (Dog 4, day 5, 4 h): < 30 ng/mL
- AUC(0-t) (Dog 4, day 5): 105 ng·h/mL
- Cmax (Dog 4, day 5): 420 ng/mL
- Tmax (Dog 4, day 5): 30 min
- AUC(0-inf) (Dog 4, day 5): 575 ng·h/mL
- concentration at 0.5 h (Mean of 4 dogs, day 1, 0.5 h): 509 ng/mL
- concentration at 1 h (Mean of 4 dogs, day 1, 1 h): 221 ng/mL
- concentration at 2 h (Mean of 4 dogs, day 1, 2 h): 74 ng/mL
- concentration at 4 h (Mean of 4 dogs, day 1, 4 h): < 30 ng/mL
- concentration at 0.5 h (Mean of 4 dogs, day 3, 0.5 h): 326 ng/mL
- concentration at 1 h (Mean of 4 dogs, day 3, 1 h): 175 ng/mL
- concentration at 2 h (Mean of 4 dogs, day 3, 2 h): 66 ng/mL
- concentration at 4 h (Mean of 4 dogs, day 3, 4 h): < 30 ng/mL
- concentration at 0.5 h (Mean of 4 dogs, day 5, 0.5 h): 249 ng/mL
- concentration at 1 h (Mean of 4 dogs, day 5, 1 h): 156 ng/mL
- concentration at 2 h (Mean of 4 dogs, day 5, 2 h): < 30 ng/mL
- concentration at 4 h (Mean of 4 dogs, day 5, 4 h): < 30 ng/mL
- AUC(0-t) (Mean, day 1): 458 ng·h/mL
- Cmax (Mean, day 1): 509 ng/mL
- Tmax (Mean, day 1): 30 min
- half-life (Mean, day 1): 39 min
- AUC(0-inf) (Mean, day 1): 599 ng·h/mL
- AUC(0-t) (Mean, day 3): 354 ng·h/mL
- Cmax (Mean, day 3): 326 ng/mL
- Tmax (Mean, day 3): 30 min
- half-life (Mean, day 3): 57.6 min
- AUC(0-inf) (Mean, day 3): 460 ng·h/mL
- AUC(0-t) (Mean, day 5): 178 ng·h/mL
- Cmax (Mean, day 5): 334 ng/mL
- Tmax (Mean, day 5): 45 min
- AUC(0-inf) (Mean, day 5): 407 ng·h/mL
- k el (derived from mean of half-life values, read-out: elimination constant (converted)): 0.000248 s⁻¹

Reference: patent US5162328A, “N-[3-[2-(1H-imidazol-1-yl)ethoxy]phenyl]-4-(2-thienyl)-2-pyrimidinamine and pharmacologically acceptable salts” (American Cyanamid Company, priority 1991, dated 1992)
